Reference: patent publication US20060093690A1, “Novel therapeutic use of polypodium extracts” (Especialidades Farmaceuticas Centrum, S.A., priority 2002, published 2006)

Columns and labels:
Peyronie's disease = conditions: comparative clinical study; cited from earlier work
Peyronie's patients [1] = assay: Clinical trial on 34 Peyronie's patients for 6 months, Polypodium versus Tamoxifen; assay type: in vivo, human
Procedure: (§1) The obtained results were statically significant.
(§2) The patients of Polypodium group were treated with 720 mg of Polypodium extract, orally, at 8-hourly intervals.
(§3) The patients of Tamoxifen group were treated with 20 mg of Tamoxifen, orally, at 24-hourly intervals.
The age was similar in both groups.
The plaque was assessed by physical examination and penis ecography.
Penis incurvation was assessed by photograph.

[2] = on administration; cited from earlier work
TGF-β = TGF-β production in Peyronie's patients post treatment; assay type: in vivo, human; conditions: compared with initial values, Tamoxifen group
Procedure: as §1, §2, §3
A 22% post treatment decrease in TGF-β production was found in Polypodium group when compared with initial values, against 5% in Tamoxifen group.

IL-10 = IL-10 production in Peyronie's patients post treatment; assay type: in vivo, human; conditions: compared with initial values
Procedure: as §1, §2, §3
Also, a 17% post treatment decrease in IL-10 production in Polypodium group when compared with initial values, against 79% in Tamoxifen group.

TFG-β expression = conditions: rats, Peyronie's disease by injection of TGF-β in penis; cited from earlier work
Peyronie's patients [3] = conditions: 60 patients, 10 months; cited from earlier work
[4] = 6 months, oral, assessed by photograph
[5] = 6 months, oral, physical examination and penis ecography

CC/C(=C(\c1ccccc1)c1ccc(OCCN(C)C)cc1)c1ccccc1 [Tamoxifen]
results versus placebo (Peyronie's disease): similar
Coital difficulty, Improv, % of patients (Peyronie's patients [1]; 6 months, oral): 40%
Coital difficulty, Improv, number of patients (Peyronie's patients [1]; 6 months, oral): 6
Coital difficulty, Same, % of patients (Peyronie's patients [1]; 6 months, oral): 20%
Coital difficulty, Same, number of patients (Peyronie's patients [1]; 6 months, oral): 3
Coital difficulty, Worse, % of patients (Peyronie's patients [1]; 6 months, oral): 40%
Coital difficulty, Worse, number of patients (Peyronie's patients [1]; 6 months, oral): 6
Pain, Improv, % of patients (Peyronie's patients [1]; 6 months, oral): 66%
Pain, Improv, number of patients (Peyronie's patients [1]; 6 months, oral): 10
Pain, Same, % of patients (Peyronie's patients [1]; 6 months, oral): 33%
Pain, Same, number of patients (Peyronie's patients [1]; 6 months, oral): 5
Pain, Worse, number of patients (Peyronie's patients [1]; 6 months, oral): 0
Penis incurvation, Same, % of patients (Peyronie's patients [1]; 6 months, oral): 33%
Penis incurvation, Same, number of patients (Peyronie's patients [1]; 6 months, oral): 5
Penis incurvation, Worse, % of patients (Peyronie's patients [1]; 6 months, oral): 20%
Penis incurvation, Worse, number of patients (Peyronie's patients [1]; 6 months, oral): 3
Plaque, Same, % of patients (Peyronie's patients [1]; 6 months, oral): 53%
Plaque, Same, number of patients (Peyronie's patients [1]; 6 months, oral): 8
Plaque, Worse, % of patients (Peyronie's patients [1]; 6 months, oral): 20%
Plaque, Worse, number of patients (Peyronie's patients [1]; 6 months, oral): 3
Penis incurvation, Improv, % of patients (Peyronie's patients [1]; [4]): 46%
Penis incurvation, Improv, number of patients (Peyronie's patients [1]; [4]): 7
Plaque, Improv, % of patients (Peyronie's patients [1]; [5]): 27%
Plaque, Improv, number of patients (Peyronie's patients [1]; [5]): 4
patients of group satisfied after treatment (Peyronie's patients [1]; after treatment): 45%
adverse effects [2]: diminution of sexual desire and diminution of the eyaculate
post treatment decrease in TGF-β production (TGF-β): 5%
post treatment decrease in IL-10 production (IL-10): 79%

COc1cc2c(c(OC)c1OC)-c1ccc(OC)c(=O)cc1[C@@H](NC(C)=O)CC2 [colchicin]
effect on TFG-β expression (TFG-β expression): reduces TFG-β expression
penis incurvature improved, % of patients (Peyronie's patients [3]): 30%
penis incurvature no change/unchanged, % of patients (Peyronie's patients [3]): 48%
penis incurvature worse/deteriorated, % of patients (Peyronie's patients [3]): 22%
